Test results from ChEMBL document CHEMBL1201862, “PubChem BioAssay data set” (2004).
Activity calls are given as the source filed them. Cut-off read from the data, not from the text of the source, for most assays here: actives have a measured EC50 and inactives only a lower limit.

Columns and labels:
[1] = molecular target: T1, Neuropeptides B/W receptor type 1 (Homo sapiens, UniProt P48145); experiment: human NPBW1 receptor blockade, IC50 – cell-based, fluorescence, dose response, late-stage follow-up (AID 463251); type: functional
T1 sequence (P48145 whole entry): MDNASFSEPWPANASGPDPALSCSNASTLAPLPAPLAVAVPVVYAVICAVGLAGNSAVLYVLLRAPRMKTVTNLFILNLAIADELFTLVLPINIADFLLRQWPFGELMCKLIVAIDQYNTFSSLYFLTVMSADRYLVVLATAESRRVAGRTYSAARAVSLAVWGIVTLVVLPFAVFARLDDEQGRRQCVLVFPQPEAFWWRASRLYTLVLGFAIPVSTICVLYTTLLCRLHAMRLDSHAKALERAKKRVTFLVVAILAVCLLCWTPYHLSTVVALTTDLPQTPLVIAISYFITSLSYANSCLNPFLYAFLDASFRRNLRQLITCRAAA

[2] = molecular target: Melanin-concentrating hormone receptor 1 (Homo sapiens, UniProt Q99705); experiment: Late-stage fluorescence-based counterscreen for antagonists of the G-protein coupled receptor 7 (GPR7): cell-based dose response assay to identify antagonists of the melanin-concentrating hormone receptor 1 (MCHR1). [Related pubchem assays (depositor defined):AID1861, AID1880, AID1952, AID2148, AID2251, AID2257, AID485339]; type: functional;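 note: stimulated with 30 nM MCH peptide agonist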
Melanin-concentrating hormone receptor 1, sequence (Q99705 whole entry): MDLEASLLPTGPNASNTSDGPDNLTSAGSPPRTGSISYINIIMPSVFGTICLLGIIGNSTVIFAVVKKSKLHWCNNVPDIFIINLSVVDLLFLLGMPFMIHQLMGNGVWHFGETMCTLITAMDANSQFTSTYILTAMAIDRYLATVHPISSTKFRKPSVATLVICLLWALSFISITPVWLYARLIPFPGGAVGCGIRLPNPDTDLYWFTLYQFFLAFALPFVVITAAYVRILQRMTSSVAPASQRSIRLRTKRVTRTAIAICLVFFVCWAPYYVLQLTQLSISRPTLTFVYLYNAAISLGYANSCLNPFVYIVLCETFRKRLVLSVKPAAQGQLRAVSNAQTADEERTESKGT

Serine hydrolase RBBP9 = Serine hydrolase RBBP9 (Homo sapiens, UniProt O75884); experiment: RBBP9 hydrolase inhibition, IC50 by ABPP – biochemical, gel-based ABPP, late-stage follow-up, panel member Panel member description: RBBP9 IC50 Gel-based ABPP Assay (AID 2254)
Serine hydrolase RBBP9, sequence (O75884 whole entry): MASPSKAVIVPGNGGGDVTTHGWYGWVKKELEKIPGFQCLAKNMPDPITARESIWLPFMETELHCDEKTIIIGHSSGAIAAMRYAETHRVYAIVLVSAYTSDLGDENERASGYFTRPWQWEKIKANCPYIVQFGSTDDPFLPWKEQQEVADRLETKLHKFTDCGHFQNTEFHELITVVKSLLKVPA

HeLa = experiment: viability loss in HeLa cells – cell-based, 24 h, cherry-picked samples, cytotoxicity control, dose response (AID 504726); type: functional; conditions: Homo sapiens;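 note: potency for cytotoxicity as loss of luminescence signal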
Salmon testes DNA = experiment: acridine orange-DNA binding displacement – biochemical, fluorescence polarization, cherry-picked samples, set 2, artefact control for KSHV LANA DNA-binding inhibitor project, dose response (AID 504727); parameters: species or system Salmonidae
[3] = molecular target: FAD-linked sulfhydryl oxidase ALR (Homo sapiens, UniProt P55789); experiment: ALR-catalysed DTT oxidation blockers – biochemical, H2O2 detection, luminescence, cherry-pick, dose response (AID 493248)
FAD-linked sulfhydryl oxidase ALR, sequence (P55789 whole entry): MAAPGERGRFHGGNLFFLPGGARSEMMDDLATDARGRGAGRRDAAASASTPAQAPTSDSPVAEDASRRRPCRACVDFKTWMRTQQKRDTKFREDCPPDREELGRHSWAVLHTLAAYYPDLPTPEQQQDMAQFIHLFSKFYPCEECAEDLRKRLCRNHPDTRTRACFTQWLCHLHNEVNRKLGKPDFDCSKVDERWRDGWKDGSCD

[4] = NIH3T3 cell viability loss – ATP luminescence, mouse fibroblasts, counter-screen, dose response (AID 2010); type: functional, cell-based;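 note: cells exposed to compound for about 90 hours before reading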
[5] = Trypanosoma cruzi growth suppression in host cells – NIH3T3 host cells, beta-gal luminescence, confirmation (AID 2044); type: functional, cell-based;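 note: intracellular parasites grown in NIH/3T3 mouse fibroblasts as host cells; luminescent beta-galactosidase reporter signal from transgenic T. cruzi replicating inside host cells; inhibitors lower the luminescence signal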
cells [6] = type: functional, cell-based
[7] = alpha-synuclein stem-loop luciferase translation blockers – H4 neuroglioma cells, luminescence, confirmation (AID 1988); type: functional, cell-based
Streptococcus = experiment: GAS UMAA2166 growth inhibition – luminescence, BacTiterGlo, counter-screen for streptokinase expression inhibitor project, dose response (AID 1915); type: functional, organism-based;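 note: potency for reduction of bacterial viability or growth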
[8] = Counterscreen for AddAB inhibitors: absorbance-based bacterial cell-based high throughput dose response assay for inhibitors of bacterial viability. [Related pubchem assays (depositor defined):AID435030, AID449728, AID449731, AID488942, AID488955, AID488956]; type: functional
Streptokinase A = molecular target: T2, Streptokinase A (Streptococcus pyogenes serotype M1, UniProt P10520); experiment: viability-normalized secreted streptokinase activity reduction – plasminogen activation absorbance, OD405, dose response (AID 1914); type: functional, Streptococcus pyogenes M1 GAS;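 note: secreted streptokinase activity via plasminogen activation per viability signal from cell pellet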
T2 sequence (P10520 whole entry): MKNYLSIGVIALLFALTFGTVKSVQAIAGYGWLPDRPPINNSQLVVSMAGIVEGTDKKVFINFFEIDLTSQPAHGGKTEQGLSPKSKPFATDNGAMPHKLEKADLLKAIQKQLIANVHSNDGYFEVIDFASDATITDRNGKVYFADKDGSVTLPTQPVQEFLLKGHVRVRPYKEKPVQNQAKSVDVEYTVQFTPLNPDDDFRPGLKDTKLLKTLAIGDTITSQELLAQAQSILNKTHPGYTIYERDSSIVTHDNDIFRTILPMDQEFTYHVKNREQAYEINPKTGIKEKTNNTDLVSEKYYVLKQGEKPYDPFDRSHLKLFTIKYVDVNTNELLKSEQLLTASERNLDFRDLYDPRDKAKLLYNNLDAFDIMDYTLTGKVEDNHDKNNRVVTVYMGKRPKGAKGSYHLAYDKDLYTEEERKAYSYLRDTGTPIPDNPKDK

[9] = molecular target: T3, Kappa-type opioid receptor (Homo sapiens, UniProt P41145); type: functional
T3 sequence (P41145 whole entry): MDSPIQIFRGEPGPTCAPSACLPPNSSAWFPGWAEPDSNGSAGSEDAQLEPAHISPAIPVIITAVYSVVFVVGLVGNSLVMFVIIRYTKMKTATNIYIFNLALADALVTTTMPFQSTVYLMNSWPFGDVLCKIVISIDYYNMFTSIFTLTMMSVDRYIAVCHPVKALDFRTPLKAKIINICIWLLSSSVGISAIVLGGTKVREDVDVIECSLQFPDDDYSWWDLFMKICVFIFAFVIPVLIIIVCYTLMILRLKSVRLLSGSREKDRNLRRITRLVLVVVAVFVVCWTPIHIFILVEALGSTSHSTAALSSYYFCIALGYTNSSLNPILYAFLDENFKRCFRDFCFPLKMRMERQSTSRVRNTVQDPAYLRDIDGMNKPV

[10] = Luminescence Cell-Based Dose Response HTS to Identify Inhibitors of 5'UTR Stem-Loop Driven Prion Protein mRNA Translation in H4 Neuroglioblastoma Cells. [Related pubchem assays: 1827 (Project Summary), 1813 (Primary HTS)]; type: functional
Beta-galactosidase = Beta-galactosidase (Escherichia coli, UniProt Q8VNN2); type: functional
Beta-galactosidase, sequence (Q8VNN2 whole entry): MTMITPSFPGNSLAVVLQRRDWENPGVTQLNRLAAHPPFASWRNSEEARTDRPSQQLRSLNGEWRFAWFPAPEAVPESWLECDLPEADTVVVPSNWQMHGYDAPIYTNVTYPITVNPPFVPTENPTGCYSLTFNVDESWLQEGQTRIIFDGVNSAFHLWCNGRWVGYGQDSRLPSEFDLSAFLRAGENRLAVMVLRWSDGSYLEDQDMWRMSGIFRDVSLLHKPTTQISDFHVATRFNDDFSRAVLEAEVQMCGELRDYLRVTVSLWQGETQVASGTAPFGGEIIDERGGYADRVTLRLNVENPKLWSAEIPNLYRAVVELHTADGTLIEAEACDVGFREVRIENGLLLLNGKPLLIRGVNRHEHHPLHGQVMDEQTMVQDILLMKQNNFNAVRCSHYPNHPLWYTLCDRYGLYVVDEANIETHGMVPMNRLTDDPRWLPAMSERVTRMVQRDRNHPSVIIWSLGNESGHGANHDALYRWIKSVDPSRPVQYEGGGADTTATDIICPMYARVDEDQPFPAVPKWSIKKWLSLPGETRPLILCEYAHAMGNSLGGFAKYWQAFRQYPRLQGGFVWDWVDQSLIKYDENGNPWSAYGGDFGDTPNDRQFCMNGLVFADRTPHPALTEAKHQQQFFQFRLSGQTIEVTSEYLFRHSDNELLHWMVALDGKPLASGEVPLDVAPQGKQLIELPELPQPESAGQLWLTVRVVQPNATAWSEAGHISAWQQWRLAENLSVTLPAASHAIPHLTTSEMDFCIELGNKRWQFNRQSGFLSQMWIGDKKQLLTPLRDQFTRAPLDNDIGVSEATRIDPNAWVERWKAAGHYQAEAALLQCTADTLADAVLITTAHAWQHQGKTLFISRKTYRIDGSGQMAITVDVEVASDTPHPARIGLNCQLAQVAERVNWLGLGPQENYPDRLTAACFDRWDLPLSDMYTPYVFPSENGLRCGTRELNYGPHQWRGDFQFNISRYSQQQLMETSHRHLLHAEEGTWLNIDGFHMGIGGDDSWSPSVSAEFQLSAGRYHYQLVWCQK

[11] = tested on: Streptococcus sp. 'group A'; experiment: Streptococcus pyogenes SK(-)GAS viability under kanamycin – luminescence, BacTiterGlo, confirmation, counter-screen for streptokinase expression inhibitor project, dose response (AID 1900); type: functional, organism-based
[12] = DRD fibroblast viability loss – cell-based, non-viral oncogenic, luminescence, dose response (AID 1934); type: functional; conditions: Homo sapiens
[13] = molecular target: T3, Kappa-type opioid receptor; type: functional; remark: listed apart in the source
BJ [14] = experiment: growth inhibition of engineered Ras-driven BJ cells – cell-based, alamar blue fluorescence, cherrypicked samples, dose response (AID 2631); type: functional; conditions: Homo sapiens;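 note: confirmatory dose-response assay in RAS-dependent BJ fibroblasts engineered with TERT, LT and ST, with cytotoxicity read by fluorescence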
Ephrin type-A receptor 4 = Ephrin type-A receptor 4 (Mus musculus, UniProt Q03137); experiment: EphA4 ligand-binding antagonists – biochemical, colorimetric, mouse EphA4, primary screen (AID 689); type: functional
cells [15] = type: functional, cell-based; remark: listed apart in the source
BJ [16] = experiment: BJ-TERT fibroblast viability loss – cell-based, RAS-independent, luminescence, dose response (AID 1933); type: functional; conditions: Homo sapiens
BJ [17] = experiment: BJ-TERT-LT-ST fibroblast viability loss – cell-based, RAS-independent, luminescence, dose response (AID 1935); type: functional; conditions: Homo sapiens;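 note: BJ fibroblasts immortalized with TERT plus LT and ST oncogenes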
INS1 = experiment: INS-1E survival protection against cytokine death – cell-based, luminescence, retest, dose response (AID 449756); type: functional; conditions: Rattus norvegicus;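 note: cell death triggered by IL-1 beta plus TNF-alpha plus IFN-gamma mixture; protective hits raise ATP signal compared with cytokine alone wells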
[18] = molecular target: T4, Heat shock factor protein 1 (Mus musculus, UniProt P38532); experiment: enhancement of HSF1-driven luciferase signal – cell-based, NIH3T3, luminescence, dose retest, confirmation (AID 435004); type: functional;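 note: stress induced by proteasome inhibitor MG132 added 30 min after compound; luciferase reporter driven by HSF1 response element in NIH3T3 cells; actives raise luminescence as potentiators of the MG132 stress response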
T4 sequence (P38532 whole entry): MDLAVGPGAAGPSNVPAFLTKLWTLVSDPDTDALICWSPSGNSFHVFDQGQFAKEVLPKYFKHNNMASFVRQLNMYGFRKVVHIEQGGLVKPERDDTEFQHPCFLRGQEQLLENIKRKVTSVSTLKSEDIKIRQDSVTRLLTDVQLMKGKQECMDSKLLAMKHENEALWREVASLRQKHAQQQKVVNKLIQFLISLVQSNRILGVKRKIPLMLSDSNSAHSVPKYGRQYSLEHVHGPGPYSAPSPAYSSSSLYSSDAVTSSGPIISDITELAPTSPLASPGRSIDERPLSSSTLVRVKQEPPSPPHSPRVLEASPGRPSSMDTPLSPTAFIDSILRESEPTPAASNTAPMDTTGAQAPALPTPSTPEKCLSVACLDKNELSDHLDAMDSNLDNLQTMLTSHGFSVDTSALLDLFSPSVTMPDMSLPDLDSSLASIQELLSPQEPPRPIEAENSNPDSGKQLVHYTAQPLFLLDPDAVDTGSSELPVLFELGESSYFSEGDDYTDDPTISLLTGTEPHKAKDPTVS

BJ [19] = experiment: cells; type: functional, cell-based; conditions: Homo sapiens
Exodeoxyribonuclease V = Exodeoxyribonuclease V (Escherichia coli (strain K12), UniProt P04993+P07648+P08394); experiment: RecBCD inhibition via phage-restricted bacterial growth – absorbance, V66 E. coli, mutant T4 phage, counter-screen for AddAB inhibitor project, dose response (AID 492957); type: functional, cell-based, Escherichia coli str. K-12 substr. MG1655
[20] = molecular target: T5, Voltage-dependent T-type calcium channel subunit alpha-1H (Homo sapiens, UniProt O95180); experiment: Inhibitors of T-Type Calcium Channels. [Related pubchem assays (depositor defined):AID449739, AID463087, AID489005, AID493041, AID504579, AID504584, AID504619, AID504628]; type: functional
T5 sequence (O95180 whole entry): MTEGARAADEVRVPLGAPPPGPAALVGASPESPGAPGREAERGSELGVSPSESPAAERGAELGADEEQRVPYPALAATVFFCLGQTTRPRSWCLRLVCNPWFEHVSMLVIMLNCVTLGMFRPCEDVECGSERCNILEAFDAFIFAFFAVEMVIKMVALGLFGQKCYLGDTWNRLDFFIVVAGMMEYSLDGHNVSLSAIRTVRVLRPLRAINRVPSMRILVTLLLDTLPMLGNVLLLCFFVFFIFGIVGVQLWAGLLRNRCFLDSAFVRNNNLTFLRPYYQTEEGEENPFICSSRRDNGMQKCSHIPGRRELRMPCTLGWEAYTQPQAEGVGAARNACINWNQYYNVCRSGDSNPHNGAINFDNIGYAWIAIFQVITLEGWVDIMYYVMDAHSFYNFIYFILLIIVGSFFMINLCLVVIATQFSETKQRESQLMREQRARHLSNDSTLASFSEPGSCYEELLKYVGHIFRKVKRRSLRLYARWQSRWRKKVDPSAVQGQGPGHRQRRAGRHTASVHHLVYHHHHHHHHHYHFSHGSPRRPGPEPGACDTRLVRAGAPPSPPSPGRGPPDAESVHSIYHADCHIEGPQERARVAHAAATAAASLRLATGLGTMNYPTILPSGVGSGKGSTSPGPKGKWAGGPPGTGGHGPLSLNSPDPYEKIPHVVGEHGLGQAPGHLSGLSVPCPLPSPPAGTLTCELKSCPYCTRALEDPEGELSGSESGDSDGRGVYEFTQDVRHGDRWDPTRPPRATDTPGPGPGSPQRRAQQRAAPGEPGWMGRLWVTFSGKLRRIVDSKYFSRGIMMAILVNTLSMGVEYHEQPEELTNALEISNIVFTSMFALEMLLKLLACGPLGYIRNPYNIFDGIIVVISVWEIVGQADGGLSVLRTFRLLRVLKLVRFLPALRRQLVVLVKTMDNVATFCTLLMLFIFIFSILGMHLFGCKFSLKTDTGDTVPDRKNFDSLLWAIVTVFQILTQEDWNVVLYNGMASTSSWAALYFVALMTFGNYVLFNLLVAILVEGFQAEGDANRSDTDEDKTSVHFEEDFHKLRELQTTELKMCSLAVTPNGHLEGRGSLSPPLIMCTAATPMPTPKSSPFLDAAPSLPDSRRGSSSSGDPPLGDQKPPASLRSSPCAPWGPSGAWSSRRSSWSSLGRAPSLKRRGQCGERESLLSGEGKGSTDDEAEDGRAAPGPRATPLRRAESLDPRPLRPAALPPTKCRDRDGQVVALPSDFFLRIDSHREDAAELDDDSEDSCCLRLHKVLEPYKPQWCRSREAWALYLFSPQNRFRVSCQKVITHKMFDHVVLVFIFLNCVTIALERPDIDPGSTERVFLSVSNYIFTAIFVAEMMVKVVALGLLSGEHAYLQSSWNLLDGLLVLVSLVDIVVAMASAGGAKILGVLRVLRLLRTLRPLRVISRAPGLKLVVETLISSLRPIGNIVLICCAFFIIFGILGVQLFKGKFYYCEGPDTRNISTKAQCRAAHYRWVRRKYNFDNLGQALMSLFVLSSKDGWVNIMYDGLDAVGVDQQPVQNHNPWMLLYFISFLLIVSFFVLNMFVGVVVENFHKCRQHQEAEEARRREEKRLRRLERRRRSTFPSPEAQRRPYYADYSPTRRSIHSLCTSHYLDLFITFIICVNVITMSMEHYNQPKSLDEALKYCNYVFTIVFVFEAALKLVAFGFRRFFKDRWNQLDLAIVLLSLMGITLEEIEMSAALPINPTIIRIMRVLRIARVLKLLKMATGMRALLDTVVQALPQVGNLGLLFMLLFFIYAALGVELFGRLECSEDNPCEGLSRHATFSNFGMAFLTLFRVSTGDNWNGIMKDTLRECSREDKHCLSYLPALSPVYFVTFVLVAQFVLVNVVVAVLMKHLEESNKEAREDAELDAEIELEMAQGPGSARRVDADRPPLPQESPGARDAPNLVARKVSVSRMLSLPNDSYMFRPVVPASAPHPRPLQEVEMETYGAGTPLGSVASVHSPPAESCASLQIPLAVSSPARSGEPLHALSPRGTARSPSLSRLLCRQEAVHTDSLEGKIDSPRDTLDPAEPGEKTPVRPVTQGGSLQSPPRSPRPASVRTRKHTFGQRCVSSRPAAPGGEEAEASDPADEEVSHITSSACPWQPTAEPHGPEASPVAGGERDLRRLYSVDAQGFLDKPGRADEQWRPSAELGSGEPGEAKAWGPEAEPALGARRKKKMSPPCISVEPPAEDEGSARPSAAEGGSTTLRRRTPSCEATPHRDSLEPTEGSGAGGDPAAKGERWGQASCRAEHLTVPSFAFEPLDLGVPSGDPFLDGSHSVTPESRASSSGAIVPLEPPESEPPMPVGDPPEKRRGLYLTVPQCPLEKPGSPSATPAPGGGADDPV

[21] = molecular target: T5, Voltage-dependent T-type calcium channel subunit alpha-1H; type: functional

For COC(=O)/C=C/c1cnn(-c2ccc(C(C)C)cc2)c(=O)c1Oc1ccc(OC)cc1, the IC50 [1] was > 20 µM (inactive) and the IC50 [2] was > 20 µM (inactive).

With C/C(=N\OC(=O)c1ccccc1)c1nccs1 the IC50 (Serine hydrolase RBBP9) was 5 µM (active).

With NNc1nc(-c2ccccc2)cs1 the AC50 (HeLa) was > 350 µM (inactive), the AC50 (Salmon testes DNA) was 58.7 µM (active) and the AC50 [3] was 5.04 µM (active). The EC50 [4] was 4.75 µM (active) and the EC50 [5] was 4.06 µM (active).

With Oc1c(N=Nc2ccccn2)ccc2ccccc12 the EC50 (cells [6]) was 6.46 µM (active), the EC50 [7] was 7.46 µM (active) and the EC50 (Streptococcus) was 25.1 µM (active). For the same molecule, the IC50 [8] was > 119 µM (inactive), the EC50 (Streptokinase A) was > 150 µM (not active) and the IC50 [9] was 2.32 µM (active). The EC50 [10] was 9.75 µM (active), the EC50 (Beta-galactosidase) was 14.5 µM (active) and the EC50 [11] was 2.67 µM (active). The EC50 [12] was 3.59 µM (active), the IC50 [13] was > 32 µM and the EC50 (BJ [14]) was 2.84 µM (active). The IC50 (Ephrin type-A receptor 4) was 13.8 µM (active), the EC50 (cells [15]) was > 350 µM (not active) and the EC50 (BJ [16]) was 2.8 µM (active). The EC50 (BJ [17]) was 2.99 µM (inconclusive), the AC50 (INS1) was 0.375 µM (active) and the EC50 [18] was 9.82 µM (active). The EC50 (BJ [19]) was 2.76 µM (inconclusive) and the IC50 (Exodeoxyribonuclease V) was > 119 µM (inactive).

With Clc1ccc(Cn2ncc3c(NCc4ccco4)ncnc32)c(Cl)c1 the EC50 [20] was 9.5 µM (active), the EC50 [12] was 12.3 µM (inconclusive) and the EC50 [21] was 1.99 µM (active). For the same molecule, the EC50 (BJ [16]) was 9.56 µM (inconclusive), the EC50 (BJ [17]) was > 150 µM (inconclusive) and the EC50 (BJ [19]) was > 150 µM (not active).
